What was measured:
[1] = test system: PC-9 cells; experiment: PC9 proliferation assay; type: cell-based, human; settings: Homo sapiens, PC-9, PC9; read-out: PC9 Prolif IC50 (G12V)
[2] = test system: SW480 cells; experiment: SW480 proliferation assay; type: cell-based; settings: Homo sapiens, SW480, SW480; read-out: SW480 Prolif IC50 (G12V)
[3] = molecular target: KRas(G12V) (Homo sapiens (Human), UniProt P01116, G12V); experiment: KRas(G12V) GDP HTRF (BODIPY-GDP exchange TR-FRET); type: biochemical
[4] = molecular target: KRas (Homo sapiens (Human), UniProt P01116); experiment: KRas GDP HTRF (BODIPY-GDP exchange TR-FRET); type: biochemical
How it was run: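 Inhibition of SOS1-mediated exchange of BODIPY-GDP on KRAS G12D, started with 3 nM recombinant human SOS1 and 300 nM BODIPY-GDP and read after 60 min. TR-FRET excitation 337 nm, ratio 520/490 nm ×10,000. IC50 from 4-parameter Hill fit of normalized data.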

Chain of KRas (P01116-2 other isoform, or with tags, fused parts or gaps): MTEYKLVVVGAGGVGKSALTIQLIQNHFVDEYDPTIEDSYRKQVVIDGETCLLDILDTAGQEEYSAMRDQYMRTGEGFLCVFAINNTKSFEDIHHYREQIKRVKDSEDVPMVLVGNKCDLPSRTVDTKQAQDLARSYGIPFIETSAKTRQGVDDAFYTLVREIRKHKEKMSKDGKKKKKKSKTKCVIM
Chain of KRas(G12V) (P01116-2 other isoform, or with tags, fused parts or gaps G12V): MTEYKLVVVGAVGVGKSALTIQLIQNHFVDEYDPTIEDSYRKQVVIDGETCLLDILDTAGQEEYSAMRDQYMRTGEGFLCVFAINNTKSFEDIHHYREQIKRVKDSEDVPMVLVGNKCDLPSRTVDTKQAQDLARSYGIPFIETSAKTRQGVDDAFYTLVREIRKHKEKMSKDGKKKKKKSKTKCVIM

Structure (SMILES) | IC50 [1] | IC50 [2] | IC50 [3] | IC50 [4]
Cc1cc(N)nc(-c2cc3ncnc4c3c(c2Cl)OCCN4C)c1C(F)(F)F [Example 24, 6-(8-chloro-4-methyl-5,6-dihydro-4H-[1,4]oxazepino[5,6,7-de]quinazolin-9-yl)-4-methyl-5-(trifluoromethyl)pyridin-2-amine] | 20000 nM |  | 4400 nM | 30000 nM
Cc1cc(N)nc(-c2cc3ncnc4c3c(c2Cl)OCCN4Cc2cnc[nH]2)c1C(F)(F)F [Example 30, 6-(4-((1H-imidazol-5-yl)methyl)-8-chloro-5,6-dihydro-4H-[1,4]oxazepino[5,6,7-de]quinazolin-9-yl)-4-methyl-5-(trifluoromethyl)pyridin-2-amine] |  |  | 4700 nM | 35000 nM
Cc1cc(N)nc(-c2cc3ncnc4c3c(c2Cl)OCCN4Cc2cc(F)cnc2N)c1C(F)(F)F [Example 31, 6-(4-((2-amino-5-fluoropyridin-3-yl)methyl)-8-chloro-5,6-dihydro-4H-[1,4]oxazepino[5,6,7-de]quinazolin-9-yl)-4-methyl-5-(trifluoromethyl)pyridin-2-amine] |  |  | 440 nM | 2800 nM
Cc1cc(N)nc(-c2cc3ncnc4c3c(c2Cl)OCCN4C2CCc3c(N)cncc32)c1C(F)(F)F (centres unmarked) [Example 37, 7-(9-(6-amino-4-methyl-3-(trifluoromethyl)pyridin-2-yl)-8-chloro-5,6-dihydro-4H-[1,4]oxazepino[5,6,7-de]quinazolin-4-yl)-6,7-dihydro-5H-cyclopenta[c]pyridin-4-amine] |  |  | 53 nM | 270 nM
Cc1cc(N)nc(-c2cc3ncnc4c3c(c2Cl)OC[C@H](CC#N)N4C)c1C(F)(F)F [Example 43, (S)-2-(9-(6-amino-4-methyl-3-(trifluoromethyl)pyridin-2-yl)-8-chloro-4-methyl-5,6-dihydro-4H-[1,4]oxazepino[5,6,7-de]quinazolin-5-yl)acetonitrile] |  |  | 2000 nM | 4900 nM
Cc1cc(N)nc(-c2cc3ncnc4c3c(c2Cl)OCCN4Cc2cccnc2)c1C(F)(F)F [Example 46, 6-(8-chloro-4-(pyridin-3-ylmethyl)-5,6-dihydro-4H-[1,4]oxazepino[5,6,7-de]quinazolin-9-yl)-4-methyl-5-(trifluoromethyl)pyridin-2-amine] |  |  | 11000 nM | 46000 nM
Cc1cc(N)nc(-c2cc3ncnc4c3c(c2Cl)OCCN4Cc2cc(Cl)cnc2N)c1C(F)(F)F [Example 52, 6-[13-[(2-amino-5-chloro-3-pyridyl)methyl]-8-chloro-10-oxa-2,4,13-triazatricyclo[7.4.1.05,14]tetradeca-1,3,5(14),6,8-pentaen-7-yl]-4-methyl-5-(trifluoromethyl)pyridin-2-amine] |  |  | 2400 nM | 9600 nM
Cc1cc(N)nc(-c2cc3nc(OCC4(N(C)C)COC4)nc4c3c(c2Cl)OCCN4Cc2cccnc2N)c1C(F)(F)F [Example 54, 6-(4-((2-aminopyridin-3-yl)methyl)-8-chloro-2-((3-(dimethylamino)oxetan-3-yl)methoxy)-5,6-dihydro-4H-[1,4]oxazepino[5,6,7-de]quinazolin-9-yl)-4-methyl-5-(trifluoromethyl)pyridin-2-amine] |  |  | 41 nM | 310 nM
Cc1cc(N)nc(-c2cc3nc(OCC4(C)CS(=O)(=O)C4)nc4c3c(c2Cl)OCCN4Cc2cccnc2N)c1C(F)(F)F [Example 55, 3-(((9-(6-amino-4-methyl-3-(trifluoromethyl)pyridin-2-yl)-4-((2-aminopyridin-3-yl)methyl)-8-chloro-5,6-dihydro-4H-[1,4]oxazepino[5,6,7-de]quinazolin-2-yl)oxy)methyl)-3-methylthietane 1,1-dioxide] |  |  | 19 nM | 130 nM
Cc1cc(N)nc(-c2cc3ncnc4c3c(c2Cl)OCCN4Cc2ccnnc2N)c1C(F)(F)F [Example 56, 4-((9-(6-amino-4-methyl-3-(trifluoromethyl)pyridin-2-yl)-8-chloro-5,6-dihydro-4H-[1,4]oxazepino[5,6,7-de]quinazolin-4-yl)methyl)pyridazin-3-amine] |  |  | 22 nM | 160 nM
Cc1cc(N)nc(-c2cc3ncnc4c3c(c2Cl)OCCN4Cc2c(C(F)F)ccnc2N)c1C(F)(F)F [Example 57, 6-(4-((2-amino-4-(difluoromethyl)pyridin-3-yl)methyl)-8-chloro-5,6-dihydro-4H-[1,4]oxazepino[5,6,7-de]quinazolin-9-yl)-4-methyl-5-(trifluoromethyl)pyridin-2-amine] |  |  | 270 nM | 2000 nM
CNc1cnc(N)c([C@@H](C)N2CCOc3c(Cl)c(-c4nc(N)cc(C)c4C(F)(F)F)cc4ncnc2c34)c1 [Example 58, (R)-3-(1-(9-(6-amino-4-methyl-3-(trifluoromethyl)pyridin-2-yl)-8-chloro-5,6-dihydro-4H-[1,4]oxazepino[5,6,7-de]quinazolin-4-yl)ethyl)-N5-methylpyridine-2,5-diamine] |  |  | 18 nM | 34 nM
Cc1cc(N)nc(-c2c(Cl)c3c4c(nc(OC(C)[C@@H]5CC(F)(F)CN5C)nc4c2F)N([C@H](C)c2cccnc2N)CCO3)c1C(F)(F)F (stereo partly drawn) [Example 71, 6-((R)-4-((R)-1-(2-aminopyridin-3-yl)ethyl)-8-chloro-2-((S)-1-((S)-4,4-difluoro-1-methylpyrrolidin-2-yl)ethoxy)-10-fluoro-5,6-dihydro-4H-[1,4]oxazepino[5,6,7-de]quinazolin-9-yl)-4-methyl-5-(trifluoromethyl)pyridin-2-amine] |  |  | 0.53 nM | 6.61 nM
Cc1cc(N)nc(-c2c(Cl)c3c4c(nc(OCCN5C6CCC5CN(C)C6)nc4c2F)N([C@H](C)c2cccnc2N)CCO3)c1C(F)(F)F [Example 94, 6-((9R)-4-((R)-1-(2-aminopyridin-3-yl)ethyl)-8-chloro-10-fluoro-2-(2-(3-methyl-3,8-diazabicyclo[3.2.1]octan-8-yl)ethoxy)-5,6-dihydro-4H-[1,4]oxazepino[5,6,7-de]quinazolin-9-yl)-4-methyl-5-(trifluoromethyl)pyridin-2-amine] |  |  | 0.07 nM | 0.175 nM
Cc1cc(N)nc(-c2c(Cl)c3c4c(nc(OC[C@@]56CCCN5C[C@H](F)C6)nc4c2F)N([C@H](C)c2cc(Cl)cnc2N)CCO3)c1C(F)(F)F [Example 131, 6-(4-((R)-1-(2-amino-5-chloropyridin-3-yl)ethyl)-8-chloro-10-fluoro-2-(((2R,7aS)-2-fluorotetrahydro-1H-pyrrolizin-7a(5H)-yl)methoxy)-5,6-dihydro-4H-[1,4]oxazepino[5,6,7-de]quinazolin-9-yl)-4-methyl-5-(trifluoromethyl)pyridin-2-amine] |  |  | 0.14 nM | 0.253 nM

Continued, values first:

IC50 [1] | IC50 [2] | IC50 [3] | IC50 [4] | Structure (SMILES)
11000 nM | 98 nM |  |  | COC(C)(C)COc1nc2c3c(c(Cl)c(-c4nc(N)cc(C)c4C(F)(F)F)c(F)c3n1)OCCN2[C@H](C)c1cccnc1N (atropisomer, axis not shown) [Example 110a, 6-((R)-4-((R)-1-(2-aminopyridin-3-yl)ethyl)-8-chloro-10-fluoro-2-(2-methoxy-2-methylpropoxy)-5,6-dihydro-4H-[1,4]oxazepino[5,6,7-de]quinazolin-9-yl)-4-methyl-5-(trifluoromethyl)pyridin-2-amine]
 | 1.1 nM | 0.07 nM | 0.0849 nM | Cc1cc(N)nc(-c2c(Cl)c3c4c(nc(OC[C@H]5CC[C@@H]6CO[C@H](C)CN56)nc4c2F)N([C@H](C)c2cccnc2N)CCO3)c1C(F)(F)F (atropisomer, axis not shown; (aR)) [Example 93d, 6-((R)-4-((R)-1-(2-aminopyridin-3-yl)ethyl)-8-chloro-10-fluoro-2-(((3R,6R,8aR)-3-methylhexahydro-1H-pyrrolo[2,1-c][1,4]oxazin-6-yl)methoxy)-5,6-dihydro-4H-[1,4]oxazepino[5,6,7-de]quinazolin-9-yl)-4-methyl-5-(trifluoromethyl)pyridin-2-amine]
 | 1.9 nM | 0.09 nM | 0.102 nM | Cc1c(F)c(N)cc(-c2c(Cl)c3c4c(nc(OC[C@@]56CCCN5C[C@H](F)C6)nc4c2F)N([C@H](C)c2cccnc2N)CCO3)c1C(F)(F)F (atropisomer, axis not shown; (aS)) [Example 76a, 3-((R)-1-(9-((S)-5-amino-4-fluoro-3-methyl-2-(trifluoromethyl)phenyl)-8-chloro-10-fluoro-2-(((2R,7aS)-2-fluorotetrahydro-1H-pyrrolizin-7a(5H)-yl)methoxy)-5,6-dihydro-4H-[1,4]oxazepino[5,6,7-de]quinazolin-4-yl)ethyl)pyridin-2-amine]
 | 12 nM | 0.15 nM | 0.447 nM | Cc1cc(N)nc(-c2c(Cl)c3c4c(nc(OC[C@@H]5CC[C@H]6COCCN65)nc4c2F)N([C@H](C)c2nccnc2N)CCO3)c1C(F)(F)F (atropisomer, axis not shown; (aS)) [Example 104a, 3-((R)-1-((R)-9-(6-amino-4-methyl-3-(trifluoromethyl)pyridin-2-yl)-8-chloro-10-fluoro-2-(((6S,8aS)-hexahydro-1H-pyrrolo[2,1-c][1,4]oxazin-6-yl)methoxy)-5,6-dihydro-4H-[1,4]oxazepino[5,6,7-de]quinazolin-4-yl)ethyl)pyrazin-2-amine]
 |  | 0.1 nM | 0.125 nM | Cc1cc(N)nc(-c2c(Cl)c3c4c(nc(OCC56C[C@H](F)CN5C[C@H](F)C6)nc4c2F)N([C@H](C)c2cccnc2N)CCO3)c1C(F)(F)F (stereo partly drawn) [Example 98b, 6-((9R)-4-((R)-1-(2-aminopyridin-3-yl)ethyl)-8-chloro-2-(((2R,6S)-2,6-difluorotetrahydro-1H-pyrrolizin-7a(5H)-yl)methoxy)-10-fluoro-5,6-dihydro-4H-[1,4]oxazepino[5,6,7-de]quinazolin-9-yl)-4-methyl-5-(trifluoromethyl)pyridin-2-amine]
